We go through 7 compounds from ChEMBL document CHEMBL3588838, “A full conformational characterization of antiandrogen cortexolone-17-propionate and related compounds through theoretical calculations and nuclear magnetic resonance spectroscopy” (Medchemcomm, 2014).

Calls of active or inactive are those of the source. No cut-off for these calls is given here.

Series [1] deals with Syrian golden hamster. Put plainly: Antiandrogenic activity in female Syrian golden hamsters assessed as inhibition of testosterone propionate-induced flank organ enlargement at 400 ug per animal, topically relative to untreated control. The series is classed as functional, Mesocricetus auratus.
Series [2] concerns Plasma. As to the kind of experiment: Drug metabolism in rat plasma assessed as cortexolone-21-propionate formation after up to 8 hrs by HPLC analysis in presence of 50 ug/ml dichlofvos. The series is classed as ADME, cell-free.
Series [3] deals with Syrian golden hamster. As to the kind of experiment: Antiandrogenic activity in female Syrian golden hamsters assessed as inhibition of testosterone propionate-induced flank organ enlargement at 100 ug per animal, topically relative to untreated control. The series is classed as functional, Mesocricetus auratus.
Series [4] in a line: Drug metabolism in human plasma assessed as compound remaining after 4 hrs by HPLC analysis. The series is classed as ADME, cell-free. As to conditions: read-out: Drug metabolism.
Series [5] is described as follows: Drug metabolism in rat skin homogenate assessed as compound remaining after 4 hrs by HPLC analysis. Particulars: read-out: Drug metabolism. The class given is ADME, tissue-based, Zone of skin.
Series [6] can be described thus: Drug metabolism in rat skin homogenate assessed as compound remaining after 5 mins by HPLC analysis. The class given is ADME, tissue-based, Zone of skin. Particulars: read-out: Drug metabolism.
A short description of series [7]: Drug metabolism in rat plasma assessed as compound remaining after 1 hr by HPLC analysis. Particulars: read-out: Drug metabolism. The series is classed as ADME, cell-free.
Series [8] in a line: Drug metabolism in rat plasma assessed as compound remaining after 8 hrs by HPLC analysis. The class given is ADME, cell-free. Particulars: read-out: Drug metabolism.
Series [9] is described as follows: Drug metabolism in rat skin homogenate assessed as compound remaining after 1 hr by HPLC analysis. The class given is ADME, tissue-based, Zone of skin. As to conditions: read-out: Drug metabolism.
The target in series [10] is Steroid 5-alpha-reductase (Homo sapiens) (UniProt P18405+P31213+Q9H8P0). As to the kind of experiment: Inhibition of 5alpha-reductase in human epidermis assessed as inhibition of [14C]testosterone to DHT after 24 hrs. The series is classed as protein assay.
Steroid 5-alpha-reductase (Homo sapiens), sequence (P18405 whole entry, looked up): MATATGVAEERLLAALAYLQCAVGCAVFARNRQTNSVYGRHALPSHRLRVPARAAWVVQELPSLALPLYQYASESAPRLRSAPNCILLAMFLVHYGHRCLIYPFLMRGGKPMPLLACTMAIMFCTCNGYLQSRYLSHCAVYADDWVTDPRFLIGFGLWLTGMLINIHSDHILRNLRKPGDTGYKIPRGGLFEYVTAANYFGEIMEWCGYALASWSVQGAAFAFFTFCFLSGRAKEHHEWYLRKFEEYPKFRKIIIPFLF
Steroid 5-alpha-reductase (Homo sapiens), sequence (P31213 whole entry, looked up): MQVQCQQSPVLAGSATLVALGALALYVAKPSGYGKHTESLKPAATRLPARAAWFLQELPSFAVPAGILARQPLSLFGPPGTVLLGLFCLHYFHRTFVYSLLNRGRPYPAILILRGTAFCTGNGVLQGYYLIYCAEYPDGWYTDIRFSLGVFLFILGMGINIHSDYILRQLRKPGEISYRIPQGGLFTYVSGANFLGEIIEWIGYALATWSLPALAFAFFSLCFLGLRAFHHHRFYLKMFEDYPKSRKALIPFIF
Steroid 5-alpha-reductase (Homo sapiens), sequence (Q9H8P0 whole entry, looked up): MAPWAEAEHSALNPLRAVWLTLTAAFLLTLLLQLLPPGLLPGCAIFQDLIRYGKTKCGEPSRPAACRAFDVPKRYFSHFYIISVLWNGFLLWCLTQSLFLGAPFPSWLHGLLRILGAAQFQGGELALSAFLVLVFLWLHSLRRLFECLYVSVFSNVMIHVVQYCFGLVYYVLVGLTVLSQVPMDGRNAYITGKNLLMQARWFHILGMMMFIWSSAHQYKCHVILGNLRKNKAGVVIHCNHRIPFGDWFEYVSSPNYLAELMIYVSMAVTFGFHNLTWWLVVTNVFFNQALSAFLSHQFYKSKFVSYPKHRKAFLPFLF
A short description of series [11]: Drug metabolism in rat skin homogenate assessed as compound remaining after 24 hrs by HPLC analysis. As to conditions: read-out: Drug metabolism. The series is classed as ADME, tissue-based, Zone of skin.
Series [12] in a line: Drug metabolism in rat skin homogenate assessed as compound remaining after 30 mins by HPLC analysis. The series is classed as ADME, tissue-based, Zone of skin. Particulars: read-out: Drug metabolism.
Series [13] is described as follows: Drug metabolism in rat skin homogenate assessed as compound remaining after 2 hrs by HPLC analysis. Particulars: read-out: Drug metabolism. The class given is ADME, tissue-based, Zone of skin.
Series [14] can be described thus: Drug metabolism in human plasma assessed as compound remaining after 0 mins by HPLC analysis. The series is classed as ADME, cell-free. Particulars: read-out: Drug metabolism.
The nature of series [15]: Drug metabolism in rat plasma assessed as compound remaining after 0 mins by HPLC analysis. The series is classed as ADME, cell-free. As to conditions: read-out: Drug metabolism.
For series [16], the system named is Rattus norvegicus. Put plainly: Antiandrogenic activity in sc dosed male castrated Wistar rat assessed as inhibition of testosterone propionate-induced ventral prostate gland organ effect. The class given is functional, organism-based.
The nature of series [17]: Drug metabolism in human plasma assessed as compound remaining after 1 hr by HPLC analysis. The class given is ADME, cell-free. As to conditions: read-out: Drug metabolism.
The nature of series [18]: Drug metabolism in rat plasma assessed as compound remaining after 30 mins by HPLC analysis. The series is classed as ADME, cell-free. As to conditions: read-out: Drug metabolism.
Series [19] can be described thus: Drug metabolism in rat skin homogenate assessed as compound remaining after 16 hrs by HPLC analysis. The series is classed as ADME, tissue-based, Zone of skin. As to conditions: read-out: Drug metabolism.
Series [20] has as its system Rattus norvegicus. As to the kind of experiment: Glucocorticoid activity in male castrated Wistar rat assessed as reduction in adrenal weight at 100 mg/kg, sc. The class given is functional, organism-based.
Series [21] can be described thus: Drug metabolism in rat plasma assessed as compound remaining after 15 mins by HPLC analysis. The class given is ADME, cell-free. As to conditions: read-out: Drug metabolism.
Series [22] in a line: Drug metabolism in human plasma assessed as compound remaining after 30 mins by HPLC analysis. The class given is ADME, cell-free. As to conditions: read-out: Drug metabolism.
A short description of series [23]: Drug metabolism in rat plasma assessed as compound remaining after 2 hrs by HPLC analysis. The series is classed as ADME, cell-free. Particulars: read-out: Drug metabolism.
Series [24] deals with Syrian golden hamster. As to the kind of experiment: Antiandrogenic activity in female Syrian golden hamsters assessed as inhibition of testosterone propionate-induced flank organ enlargement at 200 ug per animal, topically relative to untreated control. The class given is functional, Mesocricetus auratus.
Series [25] in a line: Drug metabolism in rat plasma assessed as compound remaining after 4 hrs by HPLC analysis. The series is classed as ADME, cell-free. As to conditions: read-out: Drug metabolism.
The subject of series [26] is Rattus norvegicus. As to the kind of experiment: Antiandrogenic activity in sc dosed male castrated Wistar rat assessed as inhibition of testosterone propionate-induced seminal vesicles gland organ effect. The series is classed as functional, organism-based.
Series [27] is described as follows: Drug metabolism in human plasma assessed as compound remaining after 6 hrs by HPLC analysis. The series is classed as ADME, cell-free. Particulars: read-out: Drug metabolism.
In series [28] the test system is Rattus norvegicus. Put plainly: Glucocorticoid activity in male castrated Wistar rat assessed as reduction in thymus weight at 100 mg/kg, sc. The series is classed as functional, organism-based.
Series [29] in a line: Drug metabolism in human plasma assessed as compound remaining after 2 hrs by HPLC analysis. As to conditions: read-out: Drug metabolism. The class given is ADME, cell-free.
In series [30] the test system is Rattus norvegicus. Put plainly: Antiandrogenic activity in sc dosed male castrated Wistar rat assessed as inhibition of testosterone propionate-induced preputial gland organ effect. The series is classed as functional, organism-based.
Series [31] is described as follows: Drug metabolism in rat skin homogenate assessed as compound remaining after 15 mins by HPLC analysis. The series is classed as ADME, tissue-based, Zone of skin. Particulars: read-out: Drug metabolism.
In series [32] the target is T1, Androgen receptor (Homo sapiens, UniProt P10275).
T1 sequence (P10275 whole entry): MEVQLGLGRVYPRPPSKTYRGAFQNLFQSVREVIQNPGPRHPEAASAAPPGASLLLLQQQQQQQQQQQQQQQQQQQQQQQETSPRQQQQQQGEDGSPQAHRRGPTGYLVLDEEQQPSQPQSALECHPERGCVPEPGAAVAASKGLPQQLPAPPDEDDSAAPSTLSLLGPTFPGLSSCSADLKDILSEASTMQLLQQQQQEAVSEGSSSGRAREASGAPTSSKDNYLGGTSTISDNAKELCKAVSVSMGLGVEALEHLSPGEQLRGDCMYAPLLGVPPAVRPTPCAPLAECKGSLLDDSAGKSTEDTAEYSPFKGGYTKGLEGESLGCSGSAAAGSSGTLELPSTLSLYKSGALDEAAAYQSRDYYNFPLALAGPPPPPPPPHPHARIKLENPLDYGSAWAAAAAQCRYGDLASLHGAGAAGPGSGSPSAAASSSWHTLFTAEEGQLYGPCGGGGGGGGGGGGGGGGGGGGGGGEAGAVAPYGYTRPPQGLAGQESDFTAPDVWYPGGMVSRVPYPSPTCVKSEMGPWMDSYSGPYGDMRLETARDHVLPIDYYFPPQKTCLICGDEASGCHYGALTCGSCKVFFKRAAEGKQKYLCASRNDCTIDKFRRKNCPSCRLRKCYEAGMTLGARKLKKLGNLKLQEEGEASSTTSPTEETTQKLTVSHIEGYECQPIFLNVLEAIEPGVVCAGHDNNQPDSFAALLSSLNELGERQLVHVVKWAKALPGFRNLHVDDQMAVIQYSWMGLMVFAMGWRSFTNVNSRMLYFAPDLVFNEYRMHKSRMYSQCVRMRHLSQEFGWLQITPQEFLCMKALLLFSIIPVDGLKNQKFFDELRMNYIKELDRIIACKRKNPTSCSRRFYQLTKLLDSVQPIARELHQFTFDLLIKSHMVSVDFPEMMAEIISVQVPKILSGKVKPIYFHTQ
Put plainly: Displacement of [3H]methyltrienolone from androgen receptor in human prostate cancer cells. The class given is cell-based, Cancer cell lines. (In general: Displacement assays read how much labelled ligand stays bound in the presence of the test substance.)

Series [33] in a line: Drug metabolism in rat skin homogenate assessed as compound remaining after 0 mins by HPLC analysis. Particulars: read-out: Drug metabolism. The series is classed as ADME, tissue-based, Zone of skin.
Series [34] in a line: Drug metabolism in rat skin homogenate assessed as compound remaining after 8 hrs by HPLC analysis. The class given is ADME, tissue-based, Zone of skin. Particulars: read-out: Drug metabolism.
The nature of series [35]: Drug metabolism in rat plasma assessed as compound remaining after 5 mins by HPLC analysis. The series is classed as ADME, cell-free. As to conditions: read-out: Drug metabolism.

`CCC(=O)OCC(=O)[C@@]1(O)CC[C@H]2[C@@H]3CCC4=CC(=O)CC[C@]4(C)[C@H]3CC[C@@]21C`: the “inhibition (INH)” value in series [1] was found to be 29%. Also, the Drug metabolism result in series [2] is “metabolite_detected”.
`CCC(=O)OCC(=O)[C@@]1(OC(=O)CC)CC[C@H]2[C@@H]3CCC4=CC(=O)CC[C@]4(C)[C@H]3CC[C@@]21C`: the “inhibition (INH)” value in series [1] was 57%.
For `CCCC(=O)O[C@]1(C(=O)CO)CC[C@H]2[C@@H]3CCC4=CC(=O)CC[C@]4(C)C3=CC[C@@]21C`, in series [1], the “inhibition (INH)” value worked out at 85%.
Regarding `C[C@]12CCC(=O)C=C1CC[C@@H]1[C@@H]2CC[C@@]2(C)[C@H]1CC[C@]2(O)C(=O)CO` [CORTODOXONE], in series [1], the “inhibition (INH)” value was 0%.
Still for that read-out and setting: in the case of `CC(=O)O[C@]1(C(C)=O)CC[C@H]2[C@@H]3C=C(Cl)C4=CC(=O)[C@@H]5C[C@@H]5[C@]4(C)[C@H]3CC[C@@]21C` [CYPROTERONE ACETATE] it was 93%.
As to `CCC(=O)O[C@]1(C(=O)CO)CC[C@H]2[C@@H]3CCC4=CC(=O)CC[C@]4(C)[C@H]3CC[C@@]21C` [CLASCOTERONE], the “inhibition (INH)” value in series [3] is recorded as 40%; in series [1] it was 84%; in [24], 78%. In addition, the remaining at 4 h in series [4] was found to be 30.3%; in series [5], 59.5%; in [25], 20%. Also, the figures for the remaining at 5 min in [6] and in series [35] were 99% and 90%, respectively. For the same compound, the remaining at 1 h turned out to be 60% in series [7], 89.5% in series [9] and 85.2% in series [17]. The remaining at 8 h was determined as 0% in series [8] and 49.5% in series [34]. For the same compound, the inhibition result in series [10] was “inactive”. In addition, the remaining at 24 h in series [11] is 44.8%. The remaining at 0.5 h in series [12] was found to be 98.5%; in [18], 80%; in series [22], 93.2%. In addition, the remaining at 2 h in [13] came out at 69.5%; in [23] it was 50%; in series [29] it was 67.2%. The values for the remaining at 0 h in series [14], in [15] and in series [33] were 99.6%, 100% and 99%, respectively. The outcome in series [16], in series [26] and in [30] was inactive. Moreover, the remaining at 16 h in series [19] came to 44.8%. Also, the inhibition result in series [20] and in series [28] was “Active” each time. The remaining at 0.25 h in series [21] worked out at 90%; in series [31], 99%. The remaining at 6 h in series [27] stood at 11.3%. Also, in [32], the concentration for half-maximal inhibition (IC50) – broadly, the point on the concentration scale where inhibition reaches its midpoint – stood at 50 nM. Besides, the inhibition constant (Ki) (in general, a measure of affinity in units of concentration, obtained from inhibition or displacement) in series [32] is 40 nM.
As for `CC(C)(C)NC(=O)[C@H]1CC[C@H]2[C@@H]3CC[C@H]4NC(=O)C=C[C@]4(C)[C@H]3CC[C@]12C` [FINASTERIDE], the “inhibition (INH)” value in [1] was determined as 71%.
